The values below come from US20230088644A1, “COMPOSITION FOR INDUCING DIFFERENTIATION INTO INSULIN-PRODUCING CELLS, AND USE THEREOF” (SEOUL NATIONAL UNIVERSITY R&DB FOUNDATION, priority 2020, published 2023).

Read-outs that look alike come from different tables or passages of the source.

In one assay the test system is mouse bone marrow cells. Nature of the assay: Differentiation of mouse bone marrow cells into insulin-producing cells, RT-PCR / quantitative real-time PCR. The note with it: for insulin expression compared to the control: 10 mM each, 6 days, DMEM. The assay is classed as cell-based. The method, then: Mouse bone marrow cells were isolated from 8-week-old male C57BL/6 mice (Orientbio Inc.) in the same manner as in Example 1.1. Bone marrow cells in DMEM culture medium (Dulbecco's Modified Eagle's Medium) (standard medium) containing 5.5 mM glucose, 10% FBS, and 1% antibiotics were seeded at 5×10^6 cells/ml into a 12-well non-coated plate, treated with glucosamine (GlcN) and putrescine (Put) to a concentration of 10 mM each or together, and cultured for 6 days in suspension for differentiation.
To investigate whether or not insulin-producing cells appeared, the gene expression levels of insulin (INS), MAFA, PDX-1, and NEUROG3 were measured by a quantitative real-time PCR method, as in the method of Example 1.2, which are shown in FIG. 3.
(§1) Samples were divided into (1) putrescine alone-treated group (5 mM), (2) putrescine (5 mM) and glucosamine (5 mM)-co-treated group, (3) putrescine (5 mM), glucosamine (5 mM), and nicotinamide (10 mM)-co-treated group, and (4) control (non-treated group). Umbilical cord blood cells (prepared in the same manner as in Example 1.3) and mouse bone marrow cells (prepared in the same manner as in Example 1.1) were cultured in suspension to induce the differentiation into insulin-producing cells.
(§2) On day 6 after priming the umbilical cord blood cells or mouse bone marrow cells for differentiation, total RNA was extracted to perform quantitative real-time PCR, similarly to the method of Example 1.2, and the mRNA expression of insulin and beta cell differentiation-related genes (MAFA, PDX1, or NEUROG3) was determined, as shown in FIGS. 4 (in primed umbilical cord blood cells) and 5 (in primed mouse bone marrow cells).

Assay [1] has as its system human umbilical cord blood cells. The class given is cell-based. On the procedure: Umbilical cord blood-derived mononuclear cells were freshly isolated using Ficoll-gradient protocol and suspended in a lysis solution (BD Pharmingen) to remove red blood cells.
Differentiation was induced by treating (priming) with putrescine in the same manner as in the method of Example 1.2, except that putrescine was added to a concentration of 1 mM or 5 mM, and the gene expression levels for insulin (INS) and factors (MAFA, NEUROG3) that promote the differentiation into insulin-producing beta cells were measured by performing quantitative real time PCR in the same manner as in the method of Example 1.2.
as §1, §2
Umbilical cord blood cells were isolated in the same manner as in Example 1.3, and the differentiation effect on culture medium was determined. […] On day 6 after the culture, the expression levels of genes were compared in the cells in which differentiation was induced in the DMEM or CMRL1066 culture medium, respectively, using RT-PCR and quantitative real-time PCR. The conditions for quantitative real-time PCR were the same as in Example 1.2, and RT-PCR was performed with the following steps; 1) initial denaturation of 94° C. for 5 minutes; 2) amplification of 94° C. for 30 seconds, 60° C. for 30 seconds, and 72° C. for 1 minute by repeating the cycle 30 times; 3) final extension of 72° C. for 10 minutes.
Cells were collected on day 6 after the culture to confirm the appearance of insulin-producing cells.

For the next assay, the system named is human bone marrow cells. The note with it: 5 mM putrescine, 6 days, DMEM; compared to control without putrescine.
The test system of assay [2] is umbilical cord blood cells. Nature of the assay: Insulin secretion of differentiated umbilical cord blood cells, insulin ELISA. As to conditions: BP-1-102 added on day 4; primed 6 days, then 3 days in CMRL1066 with 11 mM glucose; supernatant ELISA. On the technique in general: An ELISA detects its analyte on a solid surface through an enzyme-linked reagent.
The mark [3] stands for this setting: added to 5 mM putrescine, 5 mM glucosamine, 10 mM nicotinamide in CMRL1066, JSI-124 0.1 μM, CPT 1 μM, BP-1-102 10 μM, day 6.

Take `N[C@H]1C(O)O[C@H](CO)[C@@H](O)[C@@H]1O` (stereo partly drawn) [glucosamine]: in the assay with mouse bone marrow cells, the “insulin expression compared to the control” value is 2 fold.
Regarding `NCCCCN` [putrescine, 1,4-diaminobutane], the “mRNA expression of beta cell-specific genes (INS, MAFA, and NEUROG3)” value in assay [1] (5 mM putrescine, 6 days, DMEM, compared to control cells without putrescine) is “significantly increased”. For the same molecule, in assay [1] (putrescine at a concentration of 5 mM or more (0.1 to 20 mM tested), 6 days), the “gene expression levels for insulin and the factors that promote the beta cell differentiation” value is recorded as “significantly increased”. Moreover, the “mRNA expression of insulin (INS), MAFA, PDX1, and NEUROG3” value in the assay on human bone marrow cells is given as “significantly increased”. Also, the “insulin expression compared to the control” value in the assay with mouse bone marrow cells is recorded as 4.3 fold.
On to `CC(C)(O)/C=C/C(=O)[C@](C)(O)C1[C@H](O)C[C@@]2(C)[C@@H]3CC=C4C(C=C(O)C(=O)C4(C)C)[C@]3(C)C(=O)C[C@]12C` (stereo partly drawn) [JSI-124], for which the “mRNA expression levels of insulin and beta cell differentiation-related genes, order among STAT3 inhibitors” value in assay [1] (setting [3]) is “significantly increased in the order of CPT <JSI-124<BP-1-102”. The “mRNA expression levels of insulin (INS) and beta cell differentiation-related genes (PDX1, NEUROG3, or NEUROD1)” value with mouse bone marrow cells (100 nM added on day 4 after the culture, compared to treatment at other time points (day 0, 2)) was “significantly increased”. Besides, in the assay with mouse bone marrow cells (STAT3 inhibitor 100 nM added on day 0, 2 or 4 to glucosamine, putrescine and nicotinamide in CMRL 1066, collected day 6), the “expression levels of genes promoting differentiation into insulin-producing cells” value is recorded as “increased”.
For the molecule `CN(CC(=O)N(Cc1ccc(C2CCCCC2)cc1)c1ccc(C(=O)O)c(O)c1)S(=O)(=O)c1c(F)c(F)c(F)c(F)c1F` [BP-1-102], in assay [1], the “mRNA expression levels of insulin and beta cell differentiation-related genes, order among STAT3 inhibitors” value is recorded as “significantly increased in the order of CPT <JSI-124<BP-1-102”; the “mRNA expression of insulin compared to treatment only with glucosamine, putrescine, and nicotinamide” value is ≥ 3 fold. Also, the “insulin secretion compared to only three differentiation-inducing factors (glucosamine, putrescine, and nicotinamide)” value in assay [2] is on record as ≥ 10 fold.
Regarding `C[C@H]1COC2=C1C(=O)C(=O)c1c2ccc2c1CCCC2(C)C` [CPT], the “mRNA expression levels of insulin and beta cell differentiation-related genes, order among STAT3 inhibitors” value in assay [1] (setting [3]) is “significantly increased in the order of CPT <JSI-124<BP-1-102”.
